Target: T1, SARM1 (50-724) (Homo sapiens, UniProt Q6SZW1)
T1 construct: Purified SARM1 (50-724) with a final concentration of 2 nM
T1 sequence (Q6SZW1 50-724): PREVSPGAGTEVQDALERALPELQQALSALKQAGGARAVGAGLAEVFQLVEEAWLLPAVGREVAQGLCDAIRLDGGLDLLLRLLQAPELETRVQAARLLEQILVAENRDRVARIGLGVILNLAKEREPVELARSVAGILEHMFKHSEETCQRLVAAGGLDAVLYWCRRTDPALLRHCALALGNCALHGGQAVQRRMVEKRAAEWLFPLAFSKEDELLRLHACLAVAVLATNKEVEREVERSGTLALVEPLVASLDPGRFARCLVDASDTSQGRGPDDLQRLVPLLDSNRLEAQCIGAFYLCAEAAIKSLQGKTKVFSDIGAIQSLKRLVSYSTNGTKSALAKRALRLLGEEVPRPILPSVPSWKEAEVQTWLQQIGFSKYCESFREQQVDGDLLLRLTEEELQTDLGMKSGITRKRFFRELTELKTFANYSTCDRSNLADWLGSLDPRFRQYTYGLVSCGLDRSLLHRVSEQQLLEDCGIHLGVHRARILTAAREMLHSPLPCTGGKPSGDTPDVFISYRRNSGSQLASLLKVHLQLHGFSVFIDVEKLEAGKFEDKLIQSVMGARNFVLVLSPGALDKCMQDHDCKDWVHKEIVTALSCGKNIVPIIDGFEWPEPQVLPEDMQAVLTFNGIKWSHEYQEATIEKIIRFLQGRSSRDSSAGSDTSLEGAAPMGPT
Experiment: SARM1 (50-724) enzymatic assay (NMN-activated NAD+ hydrolysis, LC-MS/MS readout)
Type: biochemical
Settings: purified SARM1 (50-724) 2 nM, 200 μM NMN activator, 100 μM NAD+ substrate, 1 h at room temperature, read-out: IC50 (SARM1 inhibitory activity)
Method in brief: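 NMN-activated NAD+ hydrolysis: compound pre-incubated 15 min at room temperature with 2 nM SARM1 (50-724) at 1% DMSO in DPBS; 100 μM NAD+ plus 200 μM NMN added and reacted 1 h at RT. Acetonitrile quench, LC-MS/MS readout.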

Row | Compound | IC50 [µM]
1 | COc1cc2[nH]c(C(=O)N(C)C3CCCC3)c(CO)c2cc1OC [Compound 30, N-cyclopentyl-3-(hydroxymethyl)-5,6-dimethoxy-N-methyl-1H-indole-2-carboxamide] | ≥ 1
2 | CC(C)c1c[nH]c(C(=O)N(C)C2CCCC2)n1 [Compound 57, N-cyclopentyl-4-isopropyl-N-methyl-1H-imidazole-2-carboxamide] | ≥ 1
3 | O=C1CCCN1CCN(C(=O)c1nc2ccc(C(F)(F)F)cc2[nH]1)c1cccc(Cl)c1Cl [Compound 165, N-(2,3-dichlorophenyl)-N-(2-(2-oxopyrrolidin-1-yl)ethyl)-6-(trifluoromethyl)-1H-benzo[d]imidazole-2-carboxamide] | 0.501 to 1
4 | CN(C(=O)c1nc2c([nH]1)CCCC2)C1CCCC1 [Compound 58, N-cyclopentyl-N-methyl-4,5,6,7-tetrahydro-1H-benzo[d]imidazole-2-carboxamide] | ≥ 1
5 | Cc1ccc2[nH]c(C(=O)N(CCO)C3CCCC3)nc2c1 [Compound 49, N-cyclopentyl-N-(2-hydroxyethyl)-5-methyl-1H-benzo[d]imidazole-2-carboxamide] | 0.101 to 0.5
6 | NC(=O)C(F)(F)CN(C(=O)c1nc2cc(Cl)cc(F)c2[nH]1)c1ccc(F)c(F)c1Cl [Compound 231] | ≤ 0.1
7 | O=C(c1nc2cc(C(F)(F)F)ccc2[nH]1)N(CC(F)(F)CO)c1cc(F)cc(F)c1Cl [Compound 218, N-(2-chloro-3,5-difluorophenyl)-N-(2,2-difluoro-3-hydroxypropyl)-5-(trifluoromethyl)-1H-benzo[d]imidazole-2-carboxamide] | ≤ 0.1
8 | CC(C)(C)c1ccc2[nH]c(C(=O)N(CC3(F)COC3)c3[nH]c(=O)ccc3Cl)nc2c1 [Compound 221, 5-(tert-butyl)-N-(3-chloro-6-oxo-1,6-dihydropyridin-2-yl)-N-((3-fluorooxetan-3-yl)methyl)-1H-benzo[d]imidazole-2-carboxamide] | ≤ 0.1
9 | Cc1ccc2[nH]c(C(=O)N(C)C3CCCCC3)nc2c1 [Compound 47, N-cyclohexyl-N,5-dimethyl-1H-benzo[d]imidazole-2-carboxamide] | 0.101 to 0.5
10 | Cc1ccc2c(c1)c(CO)c(C(=O)N(C)C1C(C)CCC1C)n2C (stereo not shown) [Compound 18, N-(2,5-dimethylcyclopentyl)-3-(hydroxymethyl)-N,1,5-trimethyl-1H-indole-2-carboxamide] | ≥ 1
11 | CN(C(=O)c1nc2c([nH]1)C(=O)CCC2)C1CCCC1 [Compound 61, N-cyclopentyl-N-methyl-7-oxo-4,5,6,7-tetrahydro-1H-benzo[d]imidazole-2-carboxamide] | ≥ 1
12 | CN(C(=O)c1[nH]c2cc(Br)ccc2c1CO)C1CCCC1 [Compound 40, 6-bromo-N-cyclopentyl-3-(hydroxymethyl)-N-methyl-1H-indole-2-carboxamidc] | ≥ 1
13 | O=C(c1nc2cc(C(F)(F)F)ccc2[nH]1)N(CCO)c1cnccc1C(F)(F)F [Compound 20, N-(2-hydroxyethyl)-5-(trifluoromethyl)-N-(4-(trifluoromethyl)pyridin-3-yl)-1H-benzo[d]imidazole-2-carboxamide] | ≤ 0.1
14 | O=C(c1nc2cc(C(F)(F)F)ccc2[nH]1)N(Cc1cc[nH]n1)c1cccc(Cl)c1Cl [Compound 132, N-((1H-pyrazol-3-yl)methyl)-N-(2,3-dichlorophenyl)-5-(trifluoromethyl)-1H-benzo[d]imidazole-2-carboxamide] | ≤ 0.1

Further lines, results first:

Row | IC50 [µM] | Compound
15 | 0.101 to 0.5 | CNCCN(C(=O)c1nc2cc(C(F)(F)F)ccc2[nH]1)c1cccc(Cl)c1Cl [Compound 121, N-(2,3-dichlorophenyl)-N-(2-(methylamino)ethyl)-5-(trifluoromethyl)-1H-benzo[d]imidazole-2-carboxamide]
16 | 0.101 to 0.5 | O=C(c1nc2cc(C(F)(F)F)c(Cl)cc2[nH]1)N(CCO)c1cccc(Cl)c1Cl [Compound 163]
17 | 0.101 to 0.5 | Cn1cc(-c2ccc3[nH]c(C(=O)N(CCO)c4cccc(Cl)c4Cl)nc3c2)cn1 [Compound 139, N-(2,3-dichlorophenyl)-N-(2-hydroxyethyl)-5-(1-methyl-1H-pyrazol-4-yl)-1H-benzo[d]imidazole-2-carboxamide]
18 | ≤ 0.1 | O=C(c1nc2cc(C(F)(F)F)ccc2[nH]1)N(CCOCCO)c1cccc(Cl)c1Cl [Compound 128, N-(2,3-dichlorophenyl)-N-(2-(2-hydroxyethoxy)ethyl)-5-(trifluoromethyl)-1H-benzo[d]imidazole-2-carboxamide]
19 | ≤ 0.1 | O=C(c1nc2cc(C(F)(F)F)ccc2[nH]1)N(c1cccc(Cl)c1Cl)C1CC(O)C1 (stereo not shown) [Compound 193, N-(2,3-dichlorophenyl)-N-(3-hydroxycyclobutyl)-5-(trifluoromethyl)-1H-benzo[d]imidazole-2-carboxamide]
20 | 0.501 to 1 | Cc1ccc2[nH]c(C(=O)NC(C)CC(C)C)c(CNc3ccccn3)c2c1 (stereo not shown) [Compound 89, 5-methyl-N-(4-methylpentan-2-yl)-3-((pyridin-2-ylamino)methyl)-1H-indole-2-carboxamide]
21 | 0.101 to 0.5 | COCCc1c(C(=O)N(C)C2CCCC2)[nH]c2ccc(C)cc12 [Compound 37, N-cyclopenty1-3-(2-methoxyethyl)-N,5-dimethyl-1H-indole-2-carboxamide]
22 | 0.101 to 0.5 | Cc1ccc2[nH]c(C(=O)N(C)c3c(Cl)cccc3Cl)c(CO)c2c1 [Compound 5, N-(2,6-dichlorophenyl)-3-(hydroxymethyl)-N,5-dimethyl-1H-indole-2-carboxamide]
23 | ≤ 0.1 | CC(C)(C)c1ccc2[nH]c(C(=O)N(CCO)c3cccc(F)c3Cl)nc2c1 [Compound 201]
24 | ≤ 0.1 | Cc1cccc(N(CCO)C(=O)c2nc3cc(C(F)(F)F)ccc3[nH]2)c1Cl [Compound 151, N-(2-chloro-3-methylphenyl)-N-(2-hydroxyethyl)-5-(trifluoromethyl)-1H-benzo[d]imidazole-2-carboxamide]
25 | ≥ 1 | Cc1ccc2[nH]c(C(=O)N(C)c3cccc(C(F)(F)F)c3)c(CO)c2c1 [Compound 10, 3-(hydroxymethyl)-N,5-dimethyl-N-(3-(trifluoromethyl)phenyl)-1H-indole-2-carboxamide]
26 | ≥ 1 | Cc1ccc(N(C)C(=O)c2[nH]c3ccc(C)cc3c2CO)cc1 [Compound 44, 3-(hydroxymethyl)-N,5-dimethyl-N-(p-tolyl)-1H-indole-2-carboxamide]
27 | ≤ 0.1 | O=C(c1nc2cc(C3CCCO3)ccc2[nH]1)N(CCO)c1cccc(Cl)c1Cl (racemic) [Compound 196]
28 | ≥ 1 | Cc1ccc2[nH]c(C(=O)N3CCCCC3)c(CNc3ccccn3)c2c1 [Compound 87, (5-methyl-3-((pyridin-2-ylamino)methyl)-1H-indol-2-yl)(piperidin-1-yl)methanone]
29 | ≤ 0.1 | Cc1ccc2[nH]c(C(=O)N(C)c3cccc(Cl)c3Cl)nc2c1 [Compound 123, N-(2,3-dichlorophenyl)-N,5-dimethyl-1H-benzimidazole-2-carboxamide]
30 | ≤ 0.1 | CC(C)(CO)c1ccc2[nH]c(C(=O)N(CC3(F)COC3)c3cccc(Cl)c3Cl)nc2c1 [Compound 205]
31 | ≤ 0.1 | O=C(c1nc2cc(C(F)(F)F)ccc2[nH]1)N(CC(F)(F)C(=O)O)c1cccc(Cl)c1Cl [Compound 106, 3-(N-(2,3-dichlorophenyl)-6-(trifluoromethyl)-1H-benzo[d]imidazole-2-carboxamido)-2,2-difluoropropanoic acid]
